# Experimental data reported in patent publication US9023758B2, “Methods for promoting plant health” (University of Delaware, priority 2009, dated 2015).
# Tests used:
# B. subtilis strain FB17 = assay: capillary chemotaxis assay; format: cell-based, Bacillus subtilis
# Procedure: (§1) To evaluate MA's ability to selectively recruit FB17, microbial motility at varying MA doses was measured by capillary chemotaxis assay (Gordillo et al., 2007). […] The concentration range of 5 to 30 μM falls within the biological titers of MA secreted in planta through the root exudates. […] To establish whether L-MA specifically chemoattracts FB17, other beneficial bacteria, such as Pseudomonas fluorescens strain Pf01 and Azospirillum brasilense strain Cd, and pathogenic bacteria, such as Pst DC3000, Erwinia carotovora strain AH2, Agrobacterium rhizogenes strain Arqua-1, and Agrobacterium tumefaciens strain LBA4404, were assayed for MA. […] Bacterial strains used in the chemotactic assay included B. subtilis strain FB17, A. tumefaciens strain LBA4404, E. carotovora strain AH2, A. rhizogenes strain Arqua-1, A. brasilense strain Cd, P. fluorescens (Pf01), and P. syringae (Pst DC3000). Data are the average of six replicates from two experiments conducted separately.
# [1] = system: Agrobacterium rhizogenes strain Arqua-1; assay: capillary chemotaxis assay; format: cell-based
# Procedure: as §1
# [2] = system: Agrobacterium tumefaciens strain LBA4404; assay: capillary chemotaxis assay; format: cell-based
# Procedure: as §1
# [3] = system: Azospirillum brasilense strain Cd; assay: capillary chemotaxis assay; format: cell-based
# Procedure: as §1
# [4] = system: Erwinia carotovora strain AH2; assay: capillary chemotaxis assay; format: cell-based
# Procedure: as §1
# [5] = system: Pseudomonas fluorescens strain Pf01; assay: capillary chemotaxis assay; format: cell-based
# Procedure: as §1
# Pst DC3000 = assay: capillary chemotaxis assay; format: cell-based, Pseudomonas syringae pv tomato
# Procedure: as §1
# yqxM operon = format: cell-based, B. subtilis strain Marburg
# PR1::GUS = PR1::GUS reporter expression in Arabidopsis
# [6] = system: PDF1.2 and PR1 transcripts; assay: RT-PCR of defense genes PDF1.2 and PR1; format: in vivo, Arabidopsis thaliana; conditions: leaves, compared to mock inoculated plants
# Source text: To further confirm that a FB17 component, acetoin, mediates this response we analyzed the defense genes PDF1.2 and Jin1 whose expression depends on functional ET and JA pathways.
# free SA = free SA levels in Arabidopsis leaves; conditions: compared to control untreated plants
# DC3000 = assay: acetoin treatment of Arabidopsis plants leaf inoculated with DC3000
smiles,measurement,setting,value
"O=C(O)C[C@H](O)C(=O)O [L-MA, L-malic acid]",chemotactic behavior of FB17,B. subtilis strain FB17; dose range of 5 to 30 μM,positive chemotactic behavior in a concentration-dependent manner
same,motility toward L-MA compared to FB17,[1],none of the bacteria shows any significant motility
same,motility toward L-MA compared to FB17,[2],none of the bacteria shows any significant motility
same,motility toward L-MA compared to FB17,[3],none of the bacteria shows any significant motility
same,motility toward L-MA compared to FB17,[4],none of the bacteria shows any significant motility
same,motility toward L-MA compared to FB17,[5],none of the bacteria shows any significant motility
same,motility toward L-MA compared to FB17,Pst DC3000,none of the bacteria shows any significant motility
same,expression of biofilm operon yqxM (β-galactosidase activity),yqxM operon,elevated expression
same,β-galactosidase activity level and kinetics compared to root exudates,yqxM operon,activity level was lower and the kinetics response was abbreviated
O=C(O)c1ccccc1O [SA],PR1 expression,PR1::GUS; leaves sprayed,higher PR1 expression
same,PR1 expression,PR1::GUS; root treated plants,much less PR1 expression
O=C(O)C[C@@H](O)C(=O)O [D-MA],chemotactic efficacy compared to the natural L-MA form,B. subtilis strain FB17; 30 μM,lower efficacies
same,chemotaxis compared to water control,B. subtilis strain FB17; 30 μM,significantly higher than the water control
same,expression of biofilm operon yqxM (β-galactosidase activity),yqxM operon,did not stimulate β-galactosidase activity
"O=C(O)C(=O)O [oxalic acid, reference compound]",chemotactic efficacy compared to the natural L-MA form,B. subtilis strain FB17; 30 μM,lower efficacies
same,expression of biofilm operon yqxM (β-galactosidase activity),yqxM operon,did not stimulate β-galactosidase activity
"CC(=O)C(C)O (stereo not drawn) [acetoin, 3-hydroxy-2-butanone]",PDF1.2 transcripts,[6],more
same,PR1 transcripts,[6],more
same,free SA levels,free SA,enhances the total free SA level
same,PR1::GUS expression,PR1::GUS; treated or root inoculated plants compared to untreated plants,enhanced PR1 expression
same,percent disease incidence,"DC3000; Arabidopsis, ratio of leaves with symptoms to leaves inoculated, vs untreated",significantly lower
same,disease symptoms,"DC3000; Arabidopsis, volatile treatment, 5 days post-infection, compared to untreated controls",significantly lower disease symptoms
same,DC3000 CFUs from leaves,"DC3000; Arabidopsis, vs untreated, P<0.05",lower DC3000 CFUs
same,protection from DC3000 infection,DC3000; SA deficient NahG plants,failed to protect
same,protection from DC3000 infection,DC3000; ethylene mutant etr1-3 plants,failed to protect
same,DC3000 multiplication in terms of CFUs,DC3000; jasmonic acid mutant Jar1-1,significantly reduction in DC3000 multiplication
same,DC3000 multiplication in terms of CFUs,DC3000; wild type Col-0,significantly reduction in DC3000 multiplication
